Reference: US11498923B2 (Merck Sharp & Dohme Corp., priority 2017, dated 2022)

What follows are molecules tested against T1, human A2a receptor (Homo sapiens, UniProt P29274) (assay: A2a receptor competition binding assay (Scintillation Proximity)). Conditions: membranes from HEK293 cells expressing human A2a receptor; 0.5 nM tritiated ligand; Cheng-Prusoff; read-out: A2a Ki.
T1 construct: purchased Perkin-Elmer RBHA2AM400UA; host or cells: HEK293 cells, used as a membrane preparation
T1 sequence (P29274 whole entry): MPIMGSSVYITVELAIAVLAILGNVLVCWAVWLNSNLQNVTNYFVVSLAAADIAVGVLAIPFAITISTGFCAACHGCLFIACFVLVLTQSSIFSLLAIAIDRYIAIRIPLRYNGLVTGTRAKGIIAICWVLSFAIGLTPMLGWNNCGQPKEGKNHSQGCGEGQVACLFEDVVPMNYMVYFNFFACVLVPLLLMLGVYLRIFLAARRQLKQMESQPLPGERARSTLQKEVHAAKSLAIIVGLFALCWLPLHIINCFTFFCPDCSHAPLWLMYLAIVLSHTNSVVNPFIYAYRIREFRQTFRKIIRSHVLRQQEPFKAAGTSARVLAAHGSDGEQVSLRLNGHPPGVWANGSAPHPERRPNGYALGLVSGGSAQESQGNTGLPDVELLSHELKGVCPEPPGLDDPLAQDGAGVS
Protocol: Binding affinities of compounds of the invention for the human A2a receptor were determined in a competition binding assay using Scintillation Proximity technology. Thus, 0.3 μg of membranes from HEK293 cells expressing the human A2a receptor were incubated with a compound of the invention at concentrations ranging from 3000 nM to 0.15 nM in a reaction mixture containing also 0.5 nM of a tritiated form of 5-amino-7-[2-phenethyl]-2-(furan-2-yl)-7H-pyrazolo[4,3-e][1,2,4]triazolo[1,5-c]pyrimidine (the tritiated compound) and 100 μg of wheat germ agglutin-coated yttrium silicate SPA beads for one hour at room temperature with agitation. The beads were then allowed to settle to the bottom of the wells for 1 hr, after which the membrane-associated radioactivity was determined by scintillation counting in a TopCount microplate reader. Ki values were determined using the Cheng-Prusoff equation.
Summary of Materials and Methods Used in A2a Activity Determination:
HEK293 cells expressing the human, rat, dog or monkey adenosine 2a receptor (Purchased from Perkin-Elmer #RBHA2AM400UA).
The Tritiated compound was prepared according to published methods.
Wheat germ agglutinin-coated yttrium silicate SPA beads (GE Healthcare #RPNQ0023). Dilute to 25 mg/ml in assay buffer.
Assay Buffer was prepared using Dulbecco's calcium and magnesium free phosphate buffered saline+10 mMMgCl2
Adenosine deaminase from calf intestine, 10 mg/2 ml (Roche #10 102 105 001).
A2a antagonist standard (9-chloro-1-(2-furanyl)-[1,2,4]triazolo1,5-c]quinazolin-5-amine from Tocris Bioscience)
Make eight 1:3 serial dilutions in 100% DMSO from a 3 mM compound stock
Transfer 50 nl of compound into a 384-well OptiPlate (Perkin Elmer).
Typically, final concentrations of compound used in the assay ranged from 3000 nM to 0.152 nM.
Dilute a solution of the Tritiated compound to 1.25 nM in assay buffer. This is a 2.5× solution. The final concentration in the assay is 0.5 nM. Calculate the concentration by counting two 5 μl aliquots.
Use 0.25 ug of membrane/well. Dilute membranes to 9.7 μg/ml in assay buffer. Treat with 20 ug/ml adenosine deaminase (ADA) for 15 minutes at room temperature to degrade endogenous adenosine.
Use 100 μg/well wheat germ agglutinin-coated yttrium silicate SPA beads.
Mix ADA-treated membranes and SPA beads together for 30 min prior to assay.
To the Perkin-Elmer Optiplate-384 containing the compound titration add 20 μl of 2.5× solution of the Tritiated compound and 30 μl of the membrane-bead mixture. Incubate for one hour at room temperature with agitation.
Include total binding (assay buffer+1% DMSO) and non-specific binding (CGS15943, 1 μM) wells.
Allow the beads to settle for one hour.
A curve fitting program (i.e., Prism, Activity Base, Chemcart) is used to determine the EC50. The Ki value is calculated using the Cheng-Prusoff equation. Ki=EC50/(1+(radioligand concentration/Kd))
For `CCN1CCC2(CCN(C(=O)c3cn4c(N)nc5c(F)cccc5c4n3)C2)C1` (centres unmarked) [Ex-280, (5-amino-7-fluoroimidazo[1,2-c]quinazolin-2-yl)(7-ethyl-2,7-diazaspiro[4.4]nonan-2-yl)methanone], the Ki was 100 nM.
For `Nc1nc2c(F)cccc2c2nc(Cc3ccccc3CN3CCN(c4ncccn4)CC3)cn12` [Ex-71, 7-fluoro-2-(2-((4-(pyrimidin-2-yl)piperazin-l-yl)methyl)benzyl) imidazo[1,2-c]quinazolin-5-amine], the Ki was 5.3 nM.
With `Nc1nc2c(F)cccc2c2nc(CN3CCc4ccc(CC(=O)Nc5ccccn5)cc4C3)cn12` [Ex-131, 2-(2-((5-amino-7-fluoroimidazo[1,2-c]quinazolin-2-yl)methyl)-1,2,3,4-tetrahydroisoquinolin-7-yl)-N-(pyridin-2-yl)acetamide] the Ki was 8.4 nM.
For `Nc1nc2c(F)cccc2c2nc(Cc3ccc(C(=O)NC4(c5ccccc5)CC4)cc3)cn12` [Ex-87, 4-((5-amino-7-fluoroimidazo[1,2-c]quinazolin-2-yl)methyl)-N-(1-phenylcyclopropyl)benzamide], the Ki was 40 nM.
`CC(=O)N1CCCC2(CCN(C(=O)c3cn4c(N)nc5c(F)cccc5c4n3)CC2)C1` [Ex-278, 1-(9-(5-amino-7-fluoroimidazo[1,2-c]quinazoline-2-carbonyl)-2,9-diazaspiro[5.5]undecan-2-yl)ethan-1-one] showed a Ki of 61 nM.
With `Nc1nc2c(F)cccc2c2nc(C(=O)N3CCCC4(CCNC4)C3)cn12` (centres unmarked) [Ex-268, (5-amino-7-fluoroimidazo[1,2-c]quinazolin-2-yl)(2,7-diazaspiro[4.5]decan-7-yl)methanone] the Ki was 66 nM.
Molecule `COc1cccc2c1nc(N)n1cc(C(=O)N3CCC[C@H]3CF)nc21` [Ex-219, (S)-(5-amino-7-methoxyimidazo[1,2-c]quinazolin-2-yl)(2-(fluoromethyl)pyrrolidin-1-yl)methanone] has a Ki of 3.6 nM.
`Nc1nc2c(F)cccc2c2nc(CC3CCNCC3)cn12` [Ex-303, 7-fluoro-2-(piperidin-4-ylmethyl)imidazo-[1,2-c]quinazolin-5-amine] was tested, and the Ki was 170 nM.
`Nc1nc2c(F)cccc2c2nc(CNCc3ccc(F)cc3)cn12` [Ex-142] gave a Ki of 130 nM.
With `COc1ccc(-c2ccc(Cc3cn4c(N)nc5c(F)cccc5c4n3)cc2)cc1` [Ex-78, 7-fluoro-2-((4′-methoxy-[1,1′-biphenyl]-4-yl)melhyl)imidazo[1,2-c]quinazolin-5-amine] the Ki was 120 nM.
`Nc1nc2c(F)cccc2c2nc(Cc3ccccc3CN3CCN(c4nc5ccccc5o4)CC3)cn12` gave a Ki of 20 nM.
Work on `CC1(O)CCN(Cc2cn3c(N)nc4ccccc4c3n2)CC1` [Ex-109, 1-((5-aminoimidazo[1,2-c]quinazolin-2-yl)methyl)-4-methylpiperidin-4-ol] yielded a Ki of 2460 nM.
Work on `COc1cccc2c1nc(N)n1cc(Cc3ccc(F)cc3F)nc21` [Ex-18, 2-(2,4-difluorobenzyl)-7-methoxyimidazo[1,2-c]quinazolin-5-amine] yielded a Ki of 1 nM.
With `COc1ccc2nc(N)n3cc(Cc4ccccc4)nc3c2c1` [Ex-04, 2-benzyl-9-methoxyimidazo[1,2-c]quinazolin-5-amine] the Ki was 89.6 nM.
`COc1cccc2c1nc(N)n1cc(Cc3c(Cl)cccc3Cl)nc21` [Ex-23, 2-(2,6-dichlorobenzyl)-7-methoxyimidazo[1,2-c]quinazolin-5-amine] showed a Ki of 2.1 nM.
For `Nc1nc2c(F)cccc2c2nc(Cc3cccc4c3OCCN4C(=O)Cc3ccccn3)cn12` [Ex-92, 1-(8-((5-amino-7-fluoroimidazo[1,2-c]quinazolin-2-yl)methyl)-2,3-dihydro-4H-benzo[b][1,4]oxazin-4-yl)-2-(pyridin-2-yl)ethan-1-one], the Ki was 13 nM.
With `Nc1nc2c(F)cccc2c2nc(C(=O)NCc3ccccc3CN3CCN(c4ccc(F)cc4F)CC3)cn12` [Ex-249, 5-amino-N-(2-((4-(2,4-difluorophenyl)piperazin-1-yl)methyl)benzyl)-7-fluoroimidazo[1,2-c]quinazoline-2-carboxamide] the Ki was 18 nM.
In the case of `COc1cccc2c1nc(N)n1cc(Cn3cc(COC(C)=O)nn3)nc21` [Ex-99, (1-((5-amino-7-methoxyimidazo[1,2-c]quinazolin-2-yl)methyl)-1H-1,2,3-triazol-4-yl)methyl acetate], the Ki is reported as 11.2 nM.
In the case of `Nc1nc2c(F)cccc2c2nc(Cc3ccc4c(c3)CN(Cc3ccccc3)C4)cn12` [Ex-65, 2-((2-benzylisoindolin-5-yl)methyl)-7-fluoroimidazo[1,2-c]quinazolin-5-amine], the Ki is reported as 5.1 nM.
`COCCOc1ccc(N2CCN(c3cccc(CNC(=O)c4cn5c(N)nc6c(F)cccc6c5n4)c3)CC2)cc1` [Ex-254, 5-amino-7-fluoro-N-(3-(4-(4-(2-methoxyethoxy)phenyl)piperazin-1-yl)benzyl)imidazo[1,2-c]quinazoline-2-carboxamide] was tested, and the Ki was 5.1 nM.
For `COc1cccc(OCc2cn3c(N)nc4c(F)cccc4c3n2)c1` [Ex-147], the Ki was 54 nM.
`Nc1nc2c(F)cccc2c2nc(CN3Cc4ccc(Br)cc4C3)cn12` [Ex-126, 2-((5-bromoisoindolin-2-yl)methyl)-7-fluoroimidazo[1,2-c]quinazolin-5-amine] gave a Ki of 38 nM.
`COC(=O)C1CCN(C(=O)c2cn3c(N)nc4c(OC)cccc4c3n2)CC1` [Ex-226, methyl 1-(5-amino-7-methoxyimidazo[1,2-c]quinazoline-2-carbonyl]piperidine-4-carboxylate] was tested, and the Ki was 29 nM.
`COc1cccc2c1nc(N)n1cc(C(=O)N3CCCC4(CCC4)C3)nc21` [Ex-200, (5-amino-7-methoxyimidazo[1,2-c]quinazolin-2-yl)(6-azaspiro[3.5]nonan-6-yl)methanone] showed a Ki of 4.6 nM.
Work on `COc1cccc2c1nc(N)n1cc(Cc3ccccc3CN3CCOCC3)nc21` [Ex-26, 7-methoxy-2-(2-(morpholinomethyl)benzyl)imidazo[1,2-c]quinazolin-5-amine] yielded a Ki of 0.4 nM.
With `Nc1nc2c(F)cccc2c2nc(CC3CCN(CCc4ccccc4)CC3)cn12` [Ex-308, 7-fluoro-2-((1-phen-ethylpiperidin-4-yl)-methyl)imidazo[1,2-c]quinazolin-5-amine] the Ki was 300 nM.
`COc1cccc2c1nc(N)n1cc(C(=O)N3CCCC(C(F)(F)F)C3)nc21` (centres unmarked) [Ex-173, (5-amino-7-methoxyimidazo[1,2-c]quinazolin-2-yl)(3-(trifluoromethyl)piperidin-1-yl)methanone] showed a Ki of 31 nM.
`Nc1nc2c(F)cccc2c2nc(Cc3cc(F)ccc3O)cn12` [Ex-37, 2-((5-amino-7-fluoroimidazo[1,2-c]quinazolin-2-yl)methyl)-4-fluorophenol] was tested, and the Ki was 18 nM.
For `COc1cccc2c1nc(N)n1cc(C(=O)N3CCC4(CC3)CC4)nc21` [Ex-201, (5-amino-7-methoxyimidazo[1,2-c]quinazolin-2-yl)(6-azaspiro[2.5]octan-6-yl)methanone], the Ki was 14 nM.
Work on `Nc1nc2c(F)cccc2c2nc(CCN3CCN(c4ccccn4)CC3)cn12` [Ex-138] yielded a Ki of 28 nM.
Work on `COc1cccc2c1nc(N)n1cc(C(=O)N3CCCC4(C3)CC(C)(C)OC4=O)nc21` (centres unmarked) [Ex-229, 7-(5-amino-7-methoxyimidazo[1,2-c]quinazoline-2-carbonyl)-3,3-dimethyl-2-oxa-7-azaspiro[4.5]decan-1-one] yielded a Ki of 15 nM.
In the case of `Nc1nc2c(F)cccc2c2nc(CN3CCc4cc(-c5ccc(F)c(F)c5)ccc4C3)cn12` [Ex-130, 2-((6-(3,4-difluorophenyl)-3,4-dihydroisoquinolin-2(1H)-yl)methyl)-7-fluoroimidazo[1,2-c]quinazolin-5-amine], the Ki is reported as 46 nM.
With `COc1ccc(N2CCN(CCc3cn(Cc4cn5c(N)nc6c(F)cccc6c5n4)nn3)CC2)cc1` [Ex-97, 7-fluoro-2-((4-(2-(4-(4-methoxyphenyl)piperazin-1-yl)ethyl)-1H-1,2,3-triazol-1-yl)methyl)imidazo[1,2-c]quinazolin-5-amine] the Ki was 96 nM.
`Nc1nc2c(F)cccc2c2nc(CN3Cc4ccc(F)cc4C3)cn12` [Ex-124, 7-fluoro-2-((5-fluoroisoindolin-2-yl)methyl)imidazo[1,2-c]quinazolin-5-amine] was tested, and the Ki was 18 nM.
`COc1cccc2c1nc(N)n1cc(C(=O)N3CCOC(C)(C)C3)nc21` [Ex-187, (5-amino-7-methoxyimidazo[1,2-c]quinazolin-2-yl)(2,2-dimethylmorpholino) methanone] showed a Ki of 190 nM.
